These compounds were tested against wild type PKM2 (Homo sapiens, UniProt P14618) (assay: PKM2 Assay (LDH/NADH-coupled, absorbance at 340 nm)). Details: wild type PKM2 activation; 60 min preincubation at 25° C.; ADP 0.4 mM, PEP 0.11 mM; read-out: PKM2 WT AC50.
Format: biochemical
Experimental: A compound described herein may be tested for its ability to activate PKM2. For simplicity, the activation activity of these compounds is represented as an AC50 in Table 2. In Tables 2, a compound described herein may have an AC50 of wild type PKM2.
PKM2 enzyme stock solution was diluted to prepare a 1.11× Reaction Mix (without ADP). 1 μL of test compound was first added to the wells followed by 40 μL of 1.11× Reaction Mix (without ADP) and incubated at room temperature (25° C.) for 60 min. The reaction was initiated with 10 μL ADP (0.4 mM final concentration), bringing the final Reaction Mix to 1×, and the reaction progress was measured as changes in absorbance at 340 nm wavelength at room temperature.
Test compound preparation: Test compounds were prepared at 50× final concentration in DMSO. 1 to 3 dilutions were made for 11 points (for example 50 μL of 5000 μM compound was added to 100 μL 100% DMSO to yield a 1667 μM, 50 μL of this added to 100 μL DMSO to yield 556 μM, and so forth). The compounds were added to the assay as a 1 to 50 dilution (1 μL in 50 μL) to yield a top concentration of 100 μM, decreasing 3-fold for 11 points.
Reaction Mix: PKM2 (5 ng/well, 0.1 μg/ml), ADP (0.4 mM), PEP (0.11 mM), NADH (180 μM), LDH (0.005 U/μL, Sigma #L3888), 1 mM DTT, 0.03% BSA in 1× Reaction Buffer
Reaction Buffer: 100 mM KCl, 50 mM Tris pH 7.5, 5 mM MgCl2.

Chain of wild type PKM2 (P14618 whole entry): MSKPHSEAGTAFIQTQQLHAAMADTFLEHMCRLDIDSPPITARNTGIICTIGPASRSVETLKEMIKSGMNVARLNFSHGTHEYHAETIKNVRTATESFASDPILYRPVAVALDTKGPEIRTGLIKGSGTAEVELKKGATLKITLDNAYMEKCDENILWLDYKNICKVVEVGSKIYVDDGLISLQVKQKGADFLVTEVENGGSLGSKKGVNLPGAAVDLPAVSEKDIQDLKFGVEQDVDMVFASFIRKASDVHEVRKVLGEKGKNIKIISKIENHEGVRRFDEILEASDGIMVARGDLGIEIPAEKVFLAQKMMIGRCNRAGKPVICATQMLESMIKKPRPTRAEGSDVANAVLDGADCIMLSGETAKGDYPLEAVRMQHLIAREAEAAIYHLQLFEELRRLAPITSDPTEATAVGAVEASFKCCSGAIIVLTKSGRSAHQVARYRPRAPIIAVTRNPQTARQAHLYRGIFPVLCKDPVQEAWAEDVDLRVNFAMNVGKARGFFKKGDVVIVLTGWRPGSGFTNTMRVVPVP

Compared with `Cn1c2nc([S+](C)[O-])sc2c2cnn(Cc3cnc(N)s3)c(=O)c21` (centres unmarked) [Compound 38], `Cn1c2nc([S+](C)[O-])sc2c2cnn(Cc3ccnc(N)c3)c(=O)c21` (centres unmarked) [Compound 29] is higher in AC50: under 300 nM for the first, 301 to 800 nM for the second.

`Cn1c2nc(Cc3cc[nH]n3)sc2c2cnn(Cc3cscn3)c(=O)c21` [Compound 87] and `Cn1c2nc(Cc3cc[nH]n3)sc2c2cnn(Cc3cncs3)c(=O)c21` [Compound 70] cannot be ordered by AC50: under 300 nM for the first, under 300 nM for the second.

`Cn1c2nc(Cn3ccnc3)sc2c2cnn(Cc3cccc(C(N)=O)c3)c(=O)c21` [Compound 129] and `Cn1cc(Cc2nc3c(s2)c2cnn(Cc4cccc(C(N)=O)c4)c(=O)c2n3C)cn1` [Compound 128] cannot be ordered by AC50: under 300 nM for the first, under 300 nM for the second.

First: CCOC(=O)c1cccc(Cn2ncc3c4sc(C)nc4n(C)c3c2=O)c1 [Compound 4]
Second: Cc1nc2c(s1)c1cnn(Cc3cccc(F)c3)c(=O)c1n2C [Compound 2]
The AC50 of the first is higher: 301 to 800 nM for the first, under 300 nM for the second.

First: Cn1c2nc(Cc3cc[nH]n3)sc2c2cnn(Cc3cccc4c3CCN4)c(=O)c21 [Compound 85]
Second: Cn1c2nc(Cc3cc[nH]n3)sc2c2cnn(Cc3cccc4c3NS(=O)(=O)N4)c(=O)c21 [Compound 98]
The AC50 of the first is lower: under 300 nM for the first, 301 to 800 nM for the second.

`Cn1nncc1Cn1ncc2c3sc(Cc4cc[nH]n4)nc3n(C)c2c1=O` [Compound 108] and `Cn1ccc(Cn2ncc3c4sc(Cc5cc[nH]n5)nc4n(C)c3c2=O)n1` [Compound 83] cannot be ordered by AC50: under 300 nM for the first, under 300 nM for the second.

First: Cc1nc2c(s1)c1cnn(Cc3cn[nH]c3)c(=O)c1n2C [Compound 26]
Second: Cc1nc2c(s1)c1cnn(Cc3c[nH]cn3)c(=O)c1n2C [Compound 12]
The AC50 of the first is lower: 301 to 800 nM for the first, over 800 nM for the second.

Going from `Cn1cc(Cc2nc3c(s2)c2cnn(Cc4cccc5[nH]ncc45)c(=O)c2n3C)cn1` [Compound 66] to `Cn1c2nc(Cc3ccc(Cl)nc3)sc2c2cnn(Cc3cccc4[nH]ncc34)c(=O)c21` [Compound 55], the AC50 rises from under 300 nM to over 800 nM.

`Cc1nc2c(s1)c1cnn(Cc3cccc4c3cnn4C)c(=O)c1n2C` [Compound 28] and `Cc1nc2c(s1)c1cnn(Cc3cccc4[nH]ncc34)c(=O)c1n2C` [Compound 8] cannot be ordered by AC50: under 300 nM for the first, under 300 nM for the second.

`Cn1cc(C(N)=O)c(Cn2ncc3c4sc(Cc5cc[nH]n5)nc4n(C)c3c2=O)n1` [Compound 116] and `Cn1cc(C(=O)O)c(Cn2ncc3c4sc(Cc5cc[nH]n5)nc4n(C)c3c2=O)n1` [Compound 117] cannot be ordered by AC50: over 800 nM for the first, over 800 nM for the second.

`Cn1c2nc(Cc3ncsc3F)sc2c2cnn(Cc3cc[nH]n3)c(=O)c21` [Compound 112] and `Cn1c2nc(Cc3cc[nH]n3)sc2c2cnn(Cc3n[nH]cc3F)c(=O)c21` [Compound 105] cannot be ordered by AC50: under 300 nM for the first, under 300 nM for the second.

First: Cc1nc2c(s1)c1cnn(Cc3cccc(F)n3)c(=O)c1n2C [Compound 9]
Second: Cc1nc2c(s1)c1cnn(CO)c(=O)c1n2C [Compound 7]
The AC50 of the first is lower: 301 to 800 nM for the first, over 800 nM for the second.

`O=c1c2c(cnn1Cc1ccccc1)c1sc(Cc3ccccn3)nc1n2-c1ccccc1` [Compound 140] and `O=c1c2c(cnn1Cc1ccccc1)c1sc(Cc3cc[nH]n3)nc1n2Cc1ccccc1` [Compound 142] cannot be ordered by AC50: over 800 nM for the first, over 800 nM for the second.

First: Cn1c2nc(C(=O)c3cc[nH]n3)sc2c2cnn(Cc3cccc(N)n3)c(=O)c21 [Compound 123]
Second: Cn1c2nc(Cc3cc[nH]n3)sc2c2cnn(Cc3ccc(C(N)=O)cn3)c(=O)c21 [Compound 119]
The AC50 of the first is lower: under 300 nM for the first, 301 to 800 nM for the second.

Compared with `Cn1c2nc(Cn3cncn3)sc2c2cnn(Cc3ccnc(N)n3)c(=O)c21` [Compound 143], `Cn1c2nc([S+](C)[O-])sc2c2cnn(Cc3ccnc(N)n3)c(=O)c21` (centres unmarked) [Compound 36] is lower in AC50: over 800 nM for the first, 301 to 800 nM for the second.

`Cn1c2nc(Cc3cc[nH]n3)sc2c2cnn(Cc3cccc4nn[nH]c34)c(=O)c21` [Compound 77] and `Cn1c2nc(Cc3c[nH]nn3)sc2c2cnn(Cc3cc[nH]n3)c(=O)c21` [Compound 100] cannot be ordered by AC50: under 300 nM for the first, under 300 nM for the second.

First: CSc1nc2c(s1)c1cnn(Cc3csc(-n4c(C)ccc4C)n3)c(=O)c1n2C [Compound 47]
Second: CSc1nc2c(s1)c1cnn(Cc3cccc(S(N)(=O)=O)c3)c(=O)c1n2C [Compound 41]
The AC50 of the first is higher: over 800 nM for the first, 301 to 800 nM for the second.

First: Cn1c2nc(CN)sc2c2cnn(Cc3cccc4[nH]ncc34)c(=O)c21 [Compound 49]
Second: CNCc1nc2c(s1)c1cnn(Cc3cccc4[nH]ncc34)c(=O)c1n2C [Compound 46]
The AC50 of the first is higher: 301 to 800 nM for the first, under 300 nM for the second.

`Cn1c2nc([S+](C)[O-])sc2c2cnn(Cc3ccc(C(N)=O)cc3)c(=O)c21` (centres unmarked) [Compound 37] and `Cn1c2nc(Cc3cc[nH]n3)sc2c2cnn(Cc3ccc(C(N)=O)cc3)c(=O)c21` [Compound 61] cannot be ordered by AC50: over 800 nM for the first, over 800 nM for the second.

First: COC(=O)c1nc2c(s1)c1cnn(Cc3cccc(OC)c3)c(=O)c1n2C [Compound 13]
Second: COc1cccc(Cn2ncc3c4sc(C(=O)c5ccccc5)nc4n(C)c3c2=O)c1 [Compound 1]
The AC50 of the first is higher: 301 to 800 nM for the first, under 300 nM for the second.

`CC(=O)c1cccc(CC(c2cc[nH]n2)c2nc3c(s2)c2cnn(Cc4cccc(C(C)=O)c4)c(=O)c2n3C)c1` (centres unmarked) [Compound 71] and `CC(=O)NC(c1cc[nH]n1)c1nc2c(s1)c1cnn(Cc3cccc4[nH]ncc34)c(=O)c1n2C` (centres unmarked) [Compound 62] cannot be ordered by AC50: over 800 nM for the first, over 800 nM for the second.

`Cn1c2nc(C#N)sc2c2cnn(Cc3csc(N)n3)c(=O)c21` [Compound 54] and `Cn1c2nc(Cc3cc[nH]n3)sc2c2cnn(Cc3csc(CO)n3)c(=O)c21` [Compound 68] cannot be ordered by AC50: under 300 nM for the first, under 300 nM for the second.

`Cn1ccc(Cn2ncc3c4sc(Cc5n[nH]cc5F)nc4n(C)c3c2=O)n1` [Compound 113] and `Cn1ccc(Cn2ncc3c4sc(Cc5cscn5)nc4n(C)c3c2=O)n1` [Compound 96] cannot be ordered by AC50: under 300 nM for the first, under 300 nM for the second.

First: Cn1c2nc(Cc3cc[nH]n3)sc2c2cnn(Cc3coc(C(N)=O)n3)c(=O)c21 [Compound 132]
Second: Cn1cc(CN)c(Cn2ncc3c4sc(Cc5cc[nH]n5)nc4n(C)c3c2=O)n1 [Compound 124]
The AC50 of the first is lower: under 300 nM for the first, 301 to 800 nM for the second.

First: Cn1c2nc(Cn3cnnc3)sc2c2cnn(Cc3cc[nH]n3)c(=O)c21 [Compound 106]
Second: Cn1c2nc(Cc3cc[nH]n3)sc2c2cnn(Cc3ncns3)c(=O)c21 [Compound 94]
The AC50 of the first is higher: over 800 nM for the first, under 300 nM for the second.

First: Cn1c2nc(Cc3ccns3)sc2c2cnn(Cc3cccc4[nH]ncc34)c(=O)c21 [Compound 82]
Second: Cn1c2nc(Cc3ccncc3)sc2c2cnn(Cc3cccc4[nH]ncc34)c(=O)c21 [Compound 57]
The AC50 of the first is lower: 301 to 800 nM for the first, over 800 nM for the second.

First: COC(=O)C(c1cc[nH]n1)c1nc2c(s1)c1cnn(Cc3cccc4[nH]ncc34)c(=O)c1n2C (centres unmarked) [Compound 58]
Second: COC(=O)C(c1ccccc1)c1nc2c(s1)c1cnn(Cc3cccc4[nH]ncc34)c(=O)c1n2C (centres unmarked) [Compound 51]
The AC50 of the first is higher: over 800 nM for the first, under 300 nM for the second.

First: Cn1c2nc(Cc3cc[nH]n3)sc2c2cnn(Cc3n[nH]c(=O)[nH]3)c(=O)c21 [Compound 131]
Second: Cn1c2nc(Cc3cc[nH]n3)sc2c2cnn(Cc3nccs3)c(=O)c21 [Compound 78]
The AC50 of the first is higher: 301 to 800 nM for the first, under 300 nM for the second.

First: Cn1ccc(CCn2ncc3c4sc(Cc5cccnc5)nc4n(C)c3c2=O)n1 [Compound 137]
Second: Cn1ccc(Cn2ncc3c4sc(CCc5cccnc5)nc4n(C)c3c2=O)n1 [Compound 141]
The AC50 of the first is lower: 301 to 800 nM for the first, over 800 nM for the second.

First: COc1cccc(Cn2ncc3c4sc(CC5CCCCC5)nc4n(C)c3c2=O)c1 [Compound 19]
Second: Cn1c2nc(Cc3cc[nH]n3)sc2c2cnn(Cc3ccccc3)c(=O)c21 [Compound 72]
The AC50 of the first is higher: over 800 nM for the first, under 300 nM for the second.

First: CC(=O)Nc1ccc(F)c(Cn2ncc3c4sc(Cn5ccnc5)nc4n(C)c3c2=O)n1 [Compound 130]
Second: Cn1c2nc(Cc3cc[nH]n3)sc2c2cnn(CCc3cccnc3)c(=O)c21 [Compound 136]
The AC50 of the first is higher: over 800 nM for the first, 301 to 800 nM for the second.

`Cc1nc2c(s1)c1cnn(CCOCCO)c(=O)c1n2C` [Compound 20] and `Cc1nc2c(s1)c1cnn(CCO)c(=O)c1n2C` [Compound 25] cannot be ordered by AC50: over 800 nM for the first, over 800 nM for the second.

`CSc1nc2c(s1)c1cnn(Cc3ccc(S(N)(=O)=O)cc3)c(=O)c1n2C` [Compound 44] and `C=CCn1ncc2c3sc(Cc4ccccn4)nc3n(C)c2c1=O` [Compound 133] cannot be ordered by AC50: over 800 nM for the first, over 800 nM for the second.

`Cn1c2nc(C3(c4ccccc4)CC3)sc2c2cnn(Cc3cccc4[nH]ncc34)c(=O)c21` [Compound 53] and `Cn1c2nc(-n3cnc(CS(=O)(=O)c4ccccc4)c3)sc2c2cnn(Cc3cccc4[nH]ncc34)c(=O)c21` [Compound 67] cannot be ordered by AC50: over 800 nM for the first, over 800 nM for the second.

Compared with `Cn1c2nc(Cc3cc[nH]n3)sc2c2cnn(Cc3ccc(C#N)cn3)c(=O)c21` [Compound 118], `Cn1c2nc(Cc3cnn[nH]3)sc2c2cnn(Cc3cccc4[nH]ncc34)c(=O)c21` [Compound 86] is lower in AC50: 301 to 800 nM for the first, under 300 nM for the second.

First: Cn1c2nc(Cc3csc(C(N)=O)n3)sc2c2cnn(Cc3cccc4[nH]ncc34)c(=O)c21 [Compound 79]
Second: Cn1c2nc(Cc3n[nH]cc3F)sc2c2cnn(Cc3n[nH]cc3OC(F)(F)F)c(=O)c21 [Compound 121]
The AC50 of the first is higher: over 800 nM for the first, 301 to 800 nM for the second.

`CCOC(c1cscn1)c1nc2c(s1)c1cnn(Cc3c[nH]nn3)c(=O)c1n2C` (centres unmarked) [Compound 114] and `Cc1nc2c(s1)c1cnn(CCCO)c(=O)c1n2C` [Compound 15] cannot be ordered by AC50: over 800 nM for the first, over 800 nM for the second.

— US11872225B2, “Pyruvate kinase modulators and use thereof” (Agios Pharmaceuticals, Inc., priority 2017, dated 2024)
